Measurements as given in patent US20060069132A1, “Azolecarboxamide herbicides” (priority 2004, published 2006).

What was measured:
barnyardgrass [1] = experiment: Test B pre-/postemergence herbicide test; format: in vivo, Echinochloa crus-galli; conditions: for Barnyardgrass plant response rating: postemergence, scale 0 (no effect) to 100 (complete control)
Procedure, shortened: (§1)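 Plants compared with untreated controls 13–15 days post-treatment and given a visual 0–100 injury score. Applications: preemergence to seeds; postemergence at 1- to 4-leaf (2–18 cm); paddy species flooded, 2-leaf stage. Vehicle non-phytotoxic, surfactant included.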

Surinam grass = experiment: Test B pre-/postemergence herbicide test; format: in vivo, Urochloa decumbens; conditions: for Surinam Grass plant response rating: postemergence, scale 0 (no effect) to 100 (complete control)
Procedure, shortened: (§2)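 Herbicidal effect was judged by eye on a 0–100 scale after plants stood 13 to 15 days in the greenhouse following pre- or postemergence treatment with surfactant-containing formulations.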

cocklebur = experiment: Test B pre-/postemergence herbicide test; format: in vivo, Xanthium strumarium; conditions: for Cocklebur plant response rating: postemergence, scale 0 (no effect) to 100 (complete control)
Procedure, shortened: as §1

corn = experiment: Test B pre-/postemergence herbicide test; format: in vivo, Zea mays; conditions: for Corn plant response rating: postemergence, scale 0 (no effect) to 100 (complete control)
Procedure, shortened: as §2

large crabgrass = experiment: Test B pre-/postemergence herbicide test; format: in vivo, Digitaria sanguinalis; conditions: for Crabgrass, Large plant response rating: postemergence, scale 0 (no effect) to 100 (complete control)
Procedure, shortened: as §2

giant foxtail = experiment: Test B pre-/postemergence herbicide test; format: in vivo, Setaria faberi; conditions: for Foxtail, Giant plant response rating: postemergence, scale 0 (no effect) to 100 (complete control)
Procedure, shortened: as §2

lambsquarters = experiment: Test B pre-/postemergence herbicide test; format: in vivo, Chenopodium album; conditions: for Lambsquarters plant response rating: postemergence, scale 0 (no effect) to 100 (complete control)
Procedure, shortened: as §2

morningglory = experiment: Test B pre-/postemergence herbicide test; format: in vivo, Ipomoea coccinea; conditions: for Morningglory plant response rating: postemergence, visual rating, scale 0 (no effect) to 100 (complete control)
Procedure, shortened: as §1

pigweed = experiment: Test B pre-/postemergence herbicide test; format: in vivo, Amaranthus retroflexus; conditions: for Pigweed plant response rating: postemergence, scale 0 (no effect) to 100 (complete control)
Procedure, shortened: as §2

rice [2] = experiment: Test B pre-/postemergence herbicide test; format: in vivo, Oryza sativa; conditions: 0 = no effect, 100 = complete control, preemergence
Procedure, shortened: as §2

velvetleaf = experiment: Test B pre-/postemergence herbicide test; format: in vivo, Abutilon theophrasti; conditions: for Velvetleaf plant response rating: postemergence, scale 0 (no effect) to 100 (complete control)
Procedure, shortened: as §2

blackgrass = experiment: Test B postemergence herbicide test; format: in vivo, Alopecurus myosuroides; conditions: postemergence, visual rating, scale 0 (no effect) to 100 (complete control)
Procedure, shortened: (§3)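 Formulated test chemicals went onto postemergence plants measuring 2 to 18 cm, at one to four leaves. For the paddy assay, species had reached two leaves. Scoring took place 13–15 days later by eye, relative to untreated plants, using 0 for no effect up to 100 for full control.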

wheat = experiment: Test B postemergence herbicide test; format: in vivo, Triticum aestivum; parameters: key to Wheat plant response rating: 0 = no effect, 100 = complete control; conditions: postemergence, visual rating, scale 0 (no effect) to 100 (complete control)
Procedure, shortened: (§4)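 Treated at 2-leaf (paddy) or 1–4-leaf, 2–18 cm (postemergence); greenhouse 13–15 d; visual score vs control, 0 none to 100 complete control; dash = not tested.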

wild oat = experiment: Test B postemergence herbicide test; format: in vivo, Avena fatua; conditions: postemergence, visual rating, scale 0 (no effect) to 100 (complete control)
Procedure, shortened: as §4

rice [3] = experiment: Test B flooded paddy test; format: in vivo, Oryza sativa; conditions: 1000 g ai/ha, visual rating, scale 0 to 100 (0 no effect, 100 complete control), 13 to 15 days
Procedure, shortened: as §4

[4] = system: small flower umbrella sedge; experiment: Test B flooded paddy test; format: in vivo, Cyperus difformis; conditions: 1000 g ai/ha, visual rating, scale 0 to 100 (0 no effect, 100 complete control), 13 to 15 days
Procedure, shortened: as §3

ducksalad [5] = experiment: Test B flooded paddy test; format: in vivo, Heteranthera limosa; conditions: 1000 g ai/ha, visual rating, scale 0 to 100 (0 no effect, 100 complete control), 13 to 15 days
Procedure, shortened: as §3

barnyardgrass [6] = experiment: Test B flooded paddy test; format: in vivo, Echinochloa crus-galli; conditions: 1000 g ai/ha, visual rating, scale 0 to 100 (0 no effect, 100 complete control), 13 to 15 days
Procedure, shortened: as §3

rice [7] = experiment: Test C flooded paddy test; format: in vivo, Oryza sativa
Procedure, shortened: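 Injury scored visually against controls on a 0 (no effect) to 100 (complete control) scale, 12 to 14 days after treatment in greenhouse. Flooded paddy plants treated at 2-leaf stage; postemergence plants at 1- to 4-leaf stage, 2 to 18 cm tall.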

[8] = system: smallflower umbrella sedge; experiment: Test C flooded paddy test; format: in vivo, Cyperus difformis
ducksalad [9] = experiment: Test C flooded paddy test; format: in vivo, Heteranthera limosa
barnyardgrass [10] = experiment: Test C flooded paddy test; format: in vivo, Echinochloa crus-galli
Procedure, shortened: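 After a postemergence application at 1 to 4 leaves (plants 2–18 cm high), or at 2 leaves for barnyardgrass in flooded paddy, plants stayed in the greenhouse for 12 to 14 days. Damage was then judged visually relative to control plants, with 100 indicating complete control.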

[11] = 125 g ai/ha, 0 = no effect, 100 = complete control, preemergence
[12] = 500 g ai/ha, visual rating, 0 = no effect, 100 = complete control, preemergence
[13] = 62 g ai/ha, scale 0 to 100 (0 no effect, 100 complete control)
[14] = 125 g ai/ha, scale 0 to 100 (0 no effect, 100 complete control)
[15] = 250 g ai/ha, scale of 0 to 100, 0 is no effect, 100 is complete control
[16] = 500 g ai/ha, visual rating after 12 to 14 days, scale 0 to 100 (0 no effect, 100 complete control)

CCNC(=O)c1cccc(NC(=O)c2nn(C(C)(C)C)cc2Cl)c1 [Compound 219]
60: Morningglory plant response rating (morningglory; 500 g ai/ha)
0: Barnyardgrass plant response rating (0 to 100 scale) (barnyardgrass [1]; [11]) | Barnyardgrass plant response rating (barnyardgrass [1]; 125 g ai/ha, visual rating) | Barnyardgrass plant response rating (barnyardgrass [1]; 500 g ai/ha, visual rating) | Surinam Grass plant response rating (0 to 100 scale) (Surinam grass; [11]) | Plant response rating, Surinam Grass (Surinam grass; [12]) | Surinam Grass plant response rating (Surinam grass; 125 g ai/ha, visual rating) | Cocklebur plant response rating (0 to 100 scale) (cocklebur; [11]) | Plant response rating, Cocklebur (cocklebur; [12]) | Cocklebur plant response rating (cocklebur; 125 g ai/ha, visual rating) | Corn plant response rating (0 to 100 scale) (corn; [11]) | Plant response rating, Corn (corn; [12]) | Corn plant response rating (corn; 125 g ai/ha, visual rating) | Crabgrass, Large plant response rating (0 to 100 scale) (large crabgrass; [11]) | Crabgrass, Large plant response rating (large crabgrass; 125 g ai/ha, visual rating) | Foxtail, Giant plant response rating (0 to 100 scale) (giant foxtail; [11]) | Plant response rating, Foxtail, Giant (giant foxtail; [12]) | Foxtail, Giant plant response rating (giant foxtail; 125 g ai/ha, visual rating) | Lambsquarters plant response rating (0 to 100 scale) (lambsquarters; [11]) | Plant response rating, Lambsquarters (lambsquarters; [12]) | Lambsquarters plant response rating (lambsquarters; 125 g ai/ha, visual rating) | Morningglory plant response rating (0 to 100 scale) (morningglory; [11]) | Morningglory plant response rating (morningglory; 125 g ai/ha) | Pigweed plant response rating (0 to 100 scale) (pigweed; [11]) | Rice plant response rating (0 to 100 scale) (rice [2]; 125 g ai/ha) | Plant response rating, Rice (rice [2]; 500 g ai/ha, visual rating) | Velvetleaf plant response rating (0 to 100 scale) (velvetleaf; [11]) | Velvetleaf plant response rating (velvetleaf; 125 g ai/ha, visual rating) | Blackgrass plant response rating (blackgrass; 125 g ai/ha) | Blackgrass plant response rating (blackgrass; 500 g ai/ha) | Wheat plant response rating (wheat; 125 g ai/ha) | Wheat plant response rating (wheat; 500 g ai/ha) | Oat, Wild plant response rating (wild oat; 125 g ai/ha) | Oat, Wild plant response rating (wild oat; 500 g ai/ha) | Rice plant response rating (rice [3]) | Barnyardgrass plant response rating (barnyardgrass [6]) | Rice plant response rating (rice [7]; [13]) | Rice plant response rating (rice [7]; [14]) | Rice plant response rating (rice [7]; [15]) | Plant response rating, Rice (rice [7]; [16]) | Sedge, Umbrella plant response rating [8, 13] | Sedge, Umbrella plant response rating [8, 14] | Sedge, Umbrella plant response rating [8, 15] | Ducksalad plant response rating (ducksalad [9]; [14]) | Ducksalad plant response rating (ducksalad [9]; [15]) | Plant response rating, Ducksalad (ducksalad [9]; [16]) | Barnyardgrass plant response rating (barnyardgrass [10]; [13]) | Barnyardgrass plant response rating (barnyardgrass [10]; [14]) | Barnyardgrass plant response rating (barnyardgrass [10]; [15]) | Plant response rating, Barnyardgrass (barnyardgrass [10]; [16])
100: Plant response rating, Crabgrass, Large (large crabgrass; [12])
80: Plant response rating, Pigweed (pigweed; [12]) | Sedge, Umbrella plant response rating [4] | Ducksalad plant response rating (ducksalad [5])
20: Plant response rating, Barnyardgrass (barnyardgrass [1]; [12]) | Cocklebur plant response rating (cocklebur; 500 g ai/ha, visual rating) | Pigweed plant response rating (pigweed; 500 g ai/ha, visual rating) | Plant response rating, Sedge, Umbrella [8, 16]
10: Surinam Grass plant response rating (Surinam grass; 500 g ai/ha, visual rating) | Corn plant response rating (corn; 500 g ai/ha, visual rating) | Crabgrass, Large plant response rating (large crabgrass; 500 g ai/ha, visual rating) | Foxtail, Giant plant response rating (giant foxtail; 500 g ai/ha, visual rating) | Lambsquarters plant response rating (lambsquarters; 500 g ai/ha, visual rating) | Pigweed plant response rating (pigweed; 125 g ai/ha, visual rating) | Plant response rating, Velvetleaf (velvetleaf; [12]) | Velvetleaf plant response rating (velvetleaf; 500 g ai/ha, visual rating)
